Key:
[1] = test system: S. typhimurium TA1535, TA97a, TA98, TA100 and E. coli WP2; assay: Micro Ames test; conditions: five bacteria strains, with or without S9
Protocol: To determine the potential genotoxicity of YC-001, a Micro Ames test was performed by the Charles River Laboratories, Inc. The S9 microsomal fraction was obtained from Moltox Molecular Toxicology, Inc. (Boone, NC, USA). A premixture was prepared including 25 μL of S9 mix (10% v/v S9 fraction in 8 mM MgCl2, 33 mM KCl, 100 mM sodium phosphate buffer, pH 7.4, +S9) or phosphate buffer (0.2 M sodium phosphate, pH 7.4, 0S9), 5 μL of bacterial culture (>1000×10^6 bacteria mL^−1) and 100 μL of molten top agar supplemented with 0.05 mM biotin and minimal histidine (0.05 mM) and minimal tryptophan (0.05 mM). The 24-well plates were prepared by adding 1.3 mL of minimal bottom agar (1.3% agar, Vogel-Bonner medium E and 0.25% glucose) to each well. A 10 μL aliquot of YC-001 working solution/negative/positive control was added to each well followed by addition of 130 μL of the premixture. The plates kept on a leveled surface for 1 h while the top agar solidified, then were incubated at 37° C. for 72 h. After this period, plates were stored at 4° C. before revertant colony counts were manually recorded using an inverted microscope. […]

C57BL/6 mice = assay: Scotopic ERG recovery after bleaching; assay type: in vivo, mouse; conditions: 200 mg kg−1 i.p., compared to DMSO
Protocol: C57BL/6 mice at 2 months of age were placed in the dark overnight. Mice then were divided into a YC-001-treated group, a DMSO-treated group, and an unbleached group. Each group contained 3 mice (2 females and 1 male). Mice were given a single dose of YC-001 at 200 mg kg^−1 by i.p. injection. The DMSO group was treated with an equivalent volume of DMSO compared to the YC-001-treated group. One h after YC-001 or DMSO administration, mouse eyes were treated with 1% tropicamide eye drops for pupil dilation, exposed to 2,000 lux of illumination for 5 min and returned to the dark. Mice were anesthetized after a bleach for scotopic ERG recordings. Briefly, every 5 min a single-flash scotopic ERG at 1.6 cd·s·m^−2 was recorded until 1 h after a bleach. A-wave amplitudes of each ERG recording were measured, averaged from three animals, and plotted as a function of time and fitted to a linear function using Origin software version 8.1.

rod opsin = target: T1, rod opsin (Bos taurus, UniProt P02699); assay: Raman spectroscopy of rod opsin crystal soaked with compound; assay type: binding, bovine; conditions: Raman difference spectrum, FIG. 4f
T1 construct: ROS membranes were isolated from bovine retinas under dim red light; from tissue; host or cells: bovine retina rod outer segment (ROS) membranes, bleached with hydroxylamine
Protocol: Bleached ROS membranes bearing opsin were solubilized with either 20 mM BTP, pH 7.5, or 50 mM MES, pH 6.4, together with 130 mM NaCl, 1 mM MgCl2, 10% sucrose, and 1% n-octyl-β-D-glucopyranoside (OG) for 1 h at 4° C. Insoluble debris was removed by centrifugation at 16,000 g for 5 min at 4° C. Crystallization screens were performed by the sparse matrix crystallization method based upon previously published crystallization conditions for rhodopsin and opsin. Each hanging drop was prepared by mixing equal volumes of solubilized opsin and a reservoir solution containing 3.0-3.6 M ammonium sulfate in 0.05-0.1 M sodium acetate buffer, pH 5.2-5.6. Crystals appeared within 2-5 days at 4° C. and were analyzed directly by Raman spectroscopy.
Here, we used Raman microscopy to test if YC-001 binds rod opsin in a single crystal. A rod opsin crystal was transferred into 4.5 μL of fresh reservoir solution on a siliconized glass coverslip and transferred into a hanging drop crystallization tray where the well contained 1 mL of the same solution. An 80 mW, 647.1 nm Kr^+ laser beam (Innova 70 C, Coherent, Palo Alto, CA, USA) was focused on the rod opsin crystal with a 20× objective. The Raman spectrum of the rod opsin crystal was accumulated over 100×1 s. […]

T1 sequence (P02699 whole entry): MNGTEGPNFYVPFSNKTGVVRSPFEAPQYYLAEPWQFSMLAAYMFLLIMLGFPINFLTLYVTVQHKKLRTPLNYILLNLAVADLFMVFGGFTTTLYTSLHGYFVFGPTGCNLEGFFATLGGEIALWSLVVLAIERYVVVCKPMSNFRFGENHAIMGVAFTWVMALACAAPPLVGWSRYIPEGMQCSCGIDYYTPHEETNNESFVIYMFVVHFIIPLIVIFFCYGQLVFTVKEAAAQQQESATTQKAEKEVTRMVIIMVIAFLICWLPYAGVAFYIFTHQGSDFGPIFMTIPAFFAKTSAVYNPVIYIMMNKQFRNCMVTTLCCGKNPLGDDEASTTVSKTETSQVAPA

Structure (SMILES): O=C1OCC(c2ccc(Cl)s2)=C1c1cccs1 [YC-001]
- Ames bacterial mutation test result [1]: negative
- scotopic ERG a-wave recovery after bleach (C57BL/6 mice): did not inhibit rhodopsin regeneration
- mode of binding to rod opsin (rod opsin): non-covalent binding

From patent US12251373B2, “Compounds and methods of treating retinal degeneration” (CASE WESTERN RESERVE UNIVERSITY, priority 2017, dated 2025)
